For one assay, the system named is ring stage parasites (Pf). Nature of the assay: Parasite lactate dehydrogenase (LDH) growth assay (Parasite Assay, PfLDH Assay). The conditions noted are these: Plasmodium falciparum, 72 h, Table 3; 72 hours growth, LDH readout; read-out: EC50. It counts as cell-based, P. falciparum.
One may read the EC50 as the concentration needed to bring the measured effect to its halfway point. `CC[C@]1(C)CC(=O)N([C@@H](CCOC)[C@H]2C[C@@H]2C(=O)N[C@H]2C[C@H](C(F)(F)F)Oc3ccccc32)C(=N)N1` [Example 62A]: the EC50 is 31 nM.

Consider `CC[C@]1(C)CC(=O)N([C@H](CCOC)[C@H]2C[C@@H]2C(=O)N[C@H]2C[C@H](C(F)(F)F)Oc3ccccc32)C(=N)N1` [Example 62B], for which the EC50 was 0.8 nM.

`CC[C@]1(C)CC(=O)N([C@H](c2cccnc2)[C@H]2C[C@@H]2C(=O)N[C@H]2CC(C)(C)Oc3ccccc32)C(=N)N1` [Example 63]: the concentration for a half-maximal effect (EC50) stood at 1.2 nM.

Consider `CC[C@]1(C)CC(=O)N([C@H](CCOC)[C@H]2C[C@@H]2C(=O)N[C@H]2CC(C)(C)Oc3ccccc32)C(=N)N1` [Example 64A], for which the EC50 turned out to be 2.3 nM.

Consider `CC[C@]1(C)CC(=O)N([C@@H](CCOC)[C@H]2C[C@@H]2C(=O)N[C@H]2CC(C)(C)Oc3ccccc32)C(=N)N1` [Example 64B], for which the EC50 was determined as 195 nM.

In the case of `CC[C@]1(C)CC(=O)N([C@H](c2cncc(F)c2)[C@H]2C[C@@H]2C(=O)N[C@@H]2c3ccccc3OC(C)(C)[C@H]2O)C(=N)N1` [Example 66], the EC50 is 2.6 nM.

On to `CC[C@@]1(C)CC(=O)N(C(c2cncc(F)c2)[C@H]2C[C@@H]2C(=O)N[C@H]2CC(C)(C)Oc3ccccc32)C(=N)N1` (stereo partly drawn) [Example 67A], for which the EC50 is 0.9 nM.

On to `CC[C@]1(C)CC(=O)N([C@H](c2cncc(F)c2)[C@H]2C[C@@H]2C(=O)N[C@H]2C[C@H](C(F)(F)F)Oc3ccccc32)C(=N)N1` [Example 68], for which the EC50 is 0.3 nM.

Consider `COCC[C@H]([C@H]1C[C@@H]1C(=O)N[C@@H]1CC(C)(C)Oc2cc(OC)ccc21)N1C(=N)NC(C)(C)CC1=O` [Example 70A], for which the EC50 was determined as 77 nM.

For `COCC[C@H]([C@H]1C[C@@H]1C(=O)N[C@H]1CC(C)(C)Oc2cc(OC)ccc21)N1C(=N)NC(C)(C)CC1=O` [Example 70B], the EC50 stood at 19 nM.

`CC1(C)CC(=O)N(C[C@H]2C[C@@H]2C(=O)N[C@H]2CC(C)(C)Oc3ccc(F)cc32)C(=N)N1` [Example 71]: the EC50 turned out to be 125 nM.

As to `COCC[C@H]([C@H]1C[C@@H]1C(=O)N[C@@H]1CC(C)(C)Oc2ccc(F)cc21)N1C(=N)NC(C)(C)CC1=O` [Example 72A], the EC50 amounted to 11 nM.

As for `COCC[C@H]([C@H]1C[C@@H]1C(=O)N[C@H]1CC(C)(C)Oc2ccc(F)cc21)N1C(=N)NC(C)(C)CC1=O` [Example 72B], the EC50 turned out to be 2.5 nM.

As for `COc1cccc2c1[C@@H](NC(=O)[C@H]1C[C@@H]1CN1C(=N)NC(C)(C)CC1=O)CC(C)(C)O2` [Example 73], the 50% effective concentration (EC50) came to 192 nM.

As to `COCC[C@H]([C@H]1C[C@@H]1C(=O)N[C@@H]1CC(C)(C)Oc2cccc(OC)c21)N1C(=N)NC(C)(C)CC1=O` [Example 74A], the EC50 came to 33 nM.

Consider `COCC[C@H]([C@H]1C[C@@H]1C(=O)N[C@H]1CC(C)(C)Oc2cccc(OC)c21)N1C(=N)NC(C)(C)CC1=O` [Example 74B], for which the EC50 came to 3.1 nM.

Regarding `CCC1(C)CC(NC(=O)[C@H]2C[C@@H]2[C@@H](CCOC)N2C(=N)NC(C)(C)CC2=O)c2ccccc2O1` (stereo partly drawn) [Example 75A], the EC50 came to 8.2 nM.

Turning to `COCC[C@H]([C@H]1C[C@@H]1C(=O)NC1CC(C)(C)Oc2cc(F)ccc21)N1C(=N)NC(C)(C)CC1=O` (stereo partly drawn) [Example 76A], the EC50 is 17 nM.

With `CC1(C)CC(=O)N([C@H](c2cccnc2)[C@H]2C[C@@H]2C(=O)NC2CC(C)(C)Oc3cc(F)ccc32)C(=N)N1` (stereo partly drawn) [Example 77A], the EC50 is 1.7 nM.

On to `CCC1(C)C[C@H](NC(=O)[C@H]2C[C@@H]2CN2C(=N)NC(C)(C)CC2=O)c2ccccc2O1` (stereo partly drawn) [Example 78], for which the EC50 came to 300 nM.

In the case of `CC(C)C1(C)CC(NC(=O)[C@H]2C[C@@H]2CN2C(=N)NC(C)(C)CC2=O)c2ccccc2O1` (stereo partly drawn) [Example 79A], the EC50 is 255 nM.

For the molecule `COCC[C@H]([C@H]1C[C@@H]1C(=O)N[C@H]1CC(C)(C)Oc2cc(C)ccc21)N1C(=N)NC(C)(C)CC1=O` [Example 83A], the EC50 is 6.6 nM.

In the case of `COCC[C@H]([C@H]1C[C@@H]1C(=O)N[C@@H]1CC(C)(C)Oc2cc(C)ccc21)N1C(=N)NC(C)(C)CC1=O` [Example 83B], the EC50 worked out at 26 nM.

Take `Cc1ccc2c(c1)OC(C)(C)C[C@@H]2NC(=O)[C@H]1C[C@@H]1CN1C(=N)NC(C)(C)CC1=O` [Example 84]: the EC50 was found to be 289 nM.

With `Cc1ccc2c(c1)OC(C)(C)C[C@@H]2NC(=O)[C@H]1C[C@@H]1[C@@H](c1cccnc1)N1C(=N)NC(C)(C)CC1=O` [Example 85A], the EC50 was 2.4 nM.

For the molecule `Cc1ccc2c(c1)OC(C)(C)C[C@H]2NC(=O)[C@H]1C[C@@H]1[C@@H](c1cccnc1)N1C(=N)NC(C)(C)CC1=O` [Example 85B], the EC50 was 0.9 nM.

As for `CC1(C)CC(=O)N([C@H](c2cccnc2)[C@H]2C[C@@H]2C(=O)N[C@@H]2CC(C)(C)Oc3cccc(F)c32)C(=N)N1` [Example 86A], the EC50 turned out to be 2.2 nM.

With `CC1(C)CC(=O)N(C[C@H]2C[C@@H]2C(=O)N[C@H]2CC(C)(C)Oc3cccc(F)c32)C(=N)N1` [Example 87], the EC50 is 160 nM.

Consider `COCC[C@H]([C@H]1C[C@@H]1C(=O)N[C@H]1CC(C)(C)Oc2cccc(F)c21)N1C(=N)NC(C)(C)CC1=O` [Example 88A], for which the EC50 came out at 5.2 nM.

`COCC[C@H]([C@H]1C[C@@H]1C(=O)N[C@@H]1CC(C)(C)Oc2cccc(F)c21)N1C(=N)NC(C)(C)CC1=O` [Example 88B]: the 50% effective concentration (EC50) turned out to be 10 nM.

Take `COCC[C@H]([C@H]1C[C@@H]1C(=O)N[C@H]1CC(C)(C)Oc2cc(Cl)ccc21)N1C(=N)NC(C)(C)CC1=O` [Example 89A]: the 50% effective concentration (EC50) was 5.6 nM.

On to `COCC[C@H]([C@H]1C[C@@H]1C(=O)N[C@@H]1CC(C)(C)Oc2cc(Cl)ccc21)N1C(=N)NC(C)(C)CC1=O` [Example 89B], for which the EC50 worked out at 22 nM.

Take `CC1(C)CC(=O)N(C[C@H]2C[C@@H]2C(=O)N[C@H]2CC(C)(C)Oc3cc(Cl)ccc32)C(=N)N1` [Example 90]: the EC50 amounted to 225 nM.

Turning to `CC1(C)CC(=O)N([C@@H](c2cccnc2)[C@H]2C[C@@H]2C(=O)N[C@H]2CC(C)(C)Oc3cc(Cl)ccc32)C(=N)N1` [Example 91A], the EC50 was 0.8 nM.

For the molecule `CC1(C)CC(=O)N([C@H](c2cccnc2)[C@H]2C[C@@H]2C(=O)N[C@H]2CC(C)(C)Oc3cc(Cl)ccc32)C(=N)N1` [Example 91B], the EC50 worked out at 2.7 nM.

In the case of `CCC1(CC)CC(NC(=O)[C@H]2C[C@@H]2[C@@H](CCOC)N2C(=N)NC(C)(C)CC2=O)c2ccccc2O1` (stereo partly drawn) [Example 92A], the concentration giving a half-maximal response (EC50) came out at 7.6 nM.

For the molecule `CC1(C)CC(=O)N([C@H](c2cccnc2)[C@H]2C[C@@H]2C(=O)NC2CC(C)(C)Oc3c(F)cccc32)C(=N)N1` (stereo partly drawn) [Example 93A], the EC50 was found to be 3.3 nM.

Consider `CC1(C)CC(=O)N([C@H](c2cccnc2)[C@H]2C[C@@H]2C(=O)NC2CC(C)(C)Oc3c(Cl)cc(Cl)cc32)C(=N)N1` (stereo partly drawn) [Example 94A], for which the EC50 came to 0.9 nM.

In the case of `CC1(C)CC(=O)N(C[C@H]2C[C@@H]2C(=O)N[C@H]2CC(C)(C)Oc3ccc(Cl)cc32)C(=N)N1` [Example 95], the EC50 stood at 110 nM.

Regarding `COc1cccc2c1C(NC(=O)[C@H]1C[C@@H]1[C@@H](c1cccnc1)N1C(=N)NC(C)(C)CC1=O)CC(C)(C)O2` (stereo partly drawn) [Example 96A], the EC50 stood at 2.7 nM.

Still in this assay, the particulars now being: Table 3; 72 hours growth, LDH readout; read-out: EC50.
As to `COc1ccc2c(c1)OC(C)(C)C[C@@H]2NC(=O)[C@H]1C[C@@H]1[C@H](c1cccnc1)N1C(=N)NC(C)(C)CC1=O` [Example 65A], the EC50 was found to be 2.8 nM.

`COc1ccc2c(c1)OC(C)(C)C[C@@H]2NC(=O)[C@H]1C[C@@H]1[C@H](c1cccnc1)N1C(=N)NC(C)(C)CC1=O` [Example 65B]: the EC50 worked out at 8 nM.

On to `CC[C@@]1(C)CC(=O)N(C(c2cncc(F)c2)[C@H]2C[C@@H]2C(=O)N[C@H]2CC(C)(C)Oc3ccccc32)C(=N)N1` (stereo partly drawn) [Example 67B], for which the half-maximal effective concentration (EC50) came out at 0.6 nM.

Turning to `CC[C@@]1(C)CC(=O)N(C(c2cncc(F)c2)[C@H]2C[C@@H]2C(=O)N[C@H]2CC(C)(C)Oc3ccc(F)cc32)C(=N)N1` (stereo partly drawn) [Example 69A], the EC50 was 1 nM.

Take `CC[C@@]1(C)CC(=O)N(C(c2cncc(F)c2)[C@H]2C[C@@H]2C(=O)N[C@H]2CC(C)(C)Oc3ccc(F)cc32)C(=N)N1` (stereo partly drawn) [Example 69B]: the EC50 stood at 1.9 nM.

With `CC[C@@]1(C)CC(=O)N(C(c2cncc(F)c2)[C@H]2C[C@@H]2C(=O)N[C@H]2CC(C)(C)Oc3ccc(F)cc32)C(=N)N1` (stereo partly drawn) [Example 69C], the EC50 came to 0.8 nM.

`CC[C@@]1(C)CC(=O)N(C(c2cncc(F)c2)[C@H]2C[C@@H]2C(=O)N[C@H]2CC(C)(C)Oc3ccc(F)cc32)C(=N)N1` (stereo partly drawn) [Example 69D]: the EC50 came out at 0.3 nM.

As for `CC[C@@]1(C)CC(=O)N(C(c2cncc(F)c2)[C@H]2C[C@@H]2C(=O)N[C@H]2CC(C)(C)Oc3ccc(F)cc32)C(=N)N1` (stereo partly drawn) [Example 69E], the EC50 worked out at 300 nM.

As for `COCC[C@H]([C@H]1C[C@@H]1C(=O)NC1CC(C)(C)Oc2cc(F)ccc21)N1C(=N)NC(C)(C)CC1=O` (stereo partly drawn) [Example 76B], the concentration for a half-maximal effect (EC50) is 15 nM.

Regarding `CC1(C)CC(=O)N([C@H](c2cccnc2)[C@H]2C[C@@H]2C(=O)NC2CC(C)(C)Oc3cc(F)ccc32)C(=N)N1` (stereo partly drawn) [Example 77B], the EC50 was found to be 2.3 nM.

Regarding `CC1(C)CC(=O)N([C@H](c2cccnc2)[C@H]2C[C@@H]2C(=O)N[C@@H]2CC(C)(C)Oc3cccc(F)c32)C(=N)N1` [Example 86B], the EC50 came out at 2.8 nM.

Consider `CCC1(CC)CC(NC(=O)[C@H]2C[C@@H]2[C@@H](CCOC)N2C(=N)NC(C)(C)CC2=O)c2ccccc2O1` (stereo partly drawn) [Example 92B], for which the EC50 came to 7.2 nM.

For the molecule `CC1(C)CC(=O)N([C@H](c2cccnc2)[C@H]2C[C@@H]2C(=O)NC2CC(C)(C)Oc3c(F)cccc32)C(=N)N1` (stereo partly drawn) [Example 93B], the EC50 is 2.4 nM.

On to `COc1cccc2c1C(NC(=O)[C@H]1C[C@@H]1[C@@H](c1cccnc1)N1C(=N)NC(C)(C)CC1=O)CC(C)(C)O2` (stereo partly drawn) [Example 96B], for which the EC50 was 3.3 nM.
